The assay relates to CEM cells HIV-1 protection, formazan growth assay. Briefly: NCI AIDS Antiviral Assay. The note with it: for IC50: measured here: growth of uninfected CEM cells. In a few lines:
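Category rules: moderately active means at least 50% protection on retest, and confirmed active means 100% protection reproducibly. The underlying data came from a formazan growth assay in HIV-1-infected CEM cells.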

Calls of active or inactive are those of the source.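 Rule for the calls: active = compounds giving half or more protection of infected cells from virus-caused growth loss, again on retest; inactive = the rest.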

For `CN(C)C(=N)c1ccccc1`, the result was inactive.

In the case of `CCOC(=O)C1C(=O)CC2c3nc4ccccc4cc3CN2C1=O` (stereo not drawn), the EC50 is above 10 µM and the IC50 is above 10 µM.

Regarding `CCOC(=O)/C=C/c1cccc(Cl)c1`, the EC50 is above 24.5 µM and the IC50 is above 24.5 µM.

With `C=C[C@@H]1OC(=O)O[C@H]1CO`, the EC50 was above 200 µM and the IC50 is above 200 µM.

With `O=c1cn[nH]c2cc(Cl)ccc12`, the EC50 was above 117 µM and the IC50 was above 117 µM.

Regarding `N#Cc1c(N)oc(-c2ccc([N+](=O)[O-])cc2)c1C#N`, the EC50 is above 200 µM and the IC50 came to 67.6 µM.

As to `C/C(CC(=O)Nc1cc(C)ccc1C)=N/N=C(N)N`, the EC50 is above 52.5 µM and the IC50 was above 52.5 µM.

Regarding `Cc1cc(C)nc(NS(=O)(=O)c2ccc(Nc3c4ccccc4nc4c(C(=O)Nc5ccc(S(=O)(=O)Nc6cc(C)on6)cc5)cccc34)cc2)n1`, the EC50 is above 35.5 µM and the 50% inhibitory concentration (IC50) is above 35.5 µM.

`c1ccc2c(c1)CCN1CCc3ccccc3C1C2` (stereo not drawn): the EC50 is above 200 µM and the IC50 came out at 36.3 µM.

For `O=C(Nc1nc2ccc([N+](=O)[O-])cc2s1)C(=O)C(C(=O)c1ccccc1F)C1OC(=O)c2ccccc21` (stereo not drawn), the EC50 was above 132 µM and the IC50 was 18.2 µM.

As for `c1cc2n[se]nc2cc1-c1ccc2n[se]nc2c1`, the EC50 was 155 µM and the IC50 was above 200 µM.

`CCOC(=O)C[C@H]1C(=O)C[C@@H]2C[C@@H](C)CC(=O)[C@@]21CCC#N`: the outcome was inactive.

For `CCCCCCC(CC)(C(=O)O)C(=O)O`, the EC50 is above 437 µM and the half-maximal inhibitory concentration (IC50) is above 437 µM.

Regarding `CCCCCCCC(=O)N1C2CC3CCC2(CS1(=O)=O)C3(C)C` (stereo not drawn), the EC50 was above 200 µM and the IC50 worked out at 19.1 µM.

For `N#Cc1c(=O)c2cccnc2n2c1[nH]c1ccccc12`, the EC50 is above 200 µM and the IC50 was above 200 µM.

For `CC(=O)C1C(=O)C(=O)N(c2ccc(Cl)cc2C)C1=O` (stereo not drawn), the EC50 is above 93.3 µM and the IC50 is above 93.3 µM.

In the case of `CC(=O)CC1CCC(=O)CCC(=O)OC(CC(C)=O)CCC(=O)CCC(=O)O1` (stereo not drawn), the EC50 is 170 µM and the IC50 was above 200 µM.

Take `CNS(=O)(=O)NN(C)S(=O)(=O)c1ccc(C)cc1`: the EC50 was above 617 µM and the IC50 is above 200 µM.

In the case of `CNC(=S)NC(=S)N(C)C`, the outcome was inactive.

`O=C1c2ccccc2CCCC12OC2c1cccnc1` (stereo not drawn): the EC50 was above 257 µM and the IC50 worked out at 151 µM.

Turning to `Cc1cc(C)c2c(c1)CN1CN2Cc2cc(C)cc(C)c21`, the outcome was inactive.

With `O=C1COc2cccnc2N1CCCCO`, the EC50 is above 200 µM and the IC50 was above 200 µM.

`Cc1c(C)c2c(c(N)c1C#N)C(=O)N(NC(=O)c1ccccc1)C2=O`: the EC50 is above 200 µM and the IC50 is 186 µM.

As to `CCn1c(=O)ccc2ccc(N(CCO)CCO)nc21`, the EC50 was above 200 µM and the half-inhibitory concentration (IC50) turned out to be 151 µM.

Consider `Cc1ccc(S(=O)(=O)OCCOCCOCCOCCOCCOS(=O)(=O)c2ccc(C)cc2)cc1`, for which the result was inactive.

With `CC(=O)C(N=Nc1ccc(S(=O)(=O)Nc2ccccn2)cc1)C(=O)Nc1ccccc1C` (stereo not drawn), the EC50 was above 200 µM and the IC50 is 4.57 µM.

`Cc1cc(C)nc(NS(=O)(=O)c2ccc(Nc3c4ccccc4nc4c(C(=O)NNCCO)cccc34)cc2)n1`: the EC50 is above 200 µM and the IC50 amounted to 33.1 µM.

Consider `N/C(CCSCCSCC/C(N)=N\O)=N\O`, for which the EC50 is above 200 µM and the IC50 was above 200 µM.

For `CN=C(SC)N(C)c1nc(=[N+](C)C)ss1`, the result was inactive.

`NCCCN1c2ccccc2Sc2ccc(Cl)cc21`: the EC50 is above 200 µM and the half-maximal inhibitory concentration (IC50) came to 10.7 µM.

As for `OCC1CCCCN1Cc1nc2ccc(Cl)cc2[nH]1` (stereo not drawn), the EC50 was above 200 µM and the IC50 was 195 µM.

Regarding `CCN(CC)CCn1nc(N)c2nc3ccccc3nc21`, the EC50 is above 200 µM and the half-inhibitory concentration (IC50) worked out at 107 µM.

With `CC(=O)NN1CCN(C)CC1`, the EC50 is above 200 µM and the IC50 is above 200 µM.

Regarding `CCOP(=O)(OCC)/C(C#N)=C/c1ccc(-c2cc(C(F)(F)F)cc(C(F)(F)F)c2)o1`, the EC50 was above 200 µM and the IC50 came out at 11.7 µM.

With `O=C1NC(=O)N2CCSC2(Cc2ccccc2)N1` (stereo not drawn), the result was inactive.

Regarding `N=C(N)N1CCNc2ccccc2C1`, the outcome was inactive.

For the compound `CN(C)CCC(=O)N1CCc2c([nH]c3ccccc23)C1c1cccnc1` (stereo not drawn), the EC50 is above 372 µM and the IC50 was above 372 µM.

Take `COc1ccc(NC(=O)CC2SC(=Nc3ccc(Cl)cc3C)NC2=O)c([N+](=O)[O-])c1` (stereo not drawn): the EC50 was above 398 µM and the IC50 is above 398 µM.

`COc1cc2oc3cc(OC)c(OC)c(CC=C(C)C)c3c(=O)c2c(O)c1CC=C(C)C`: the EC50 is above 30.9 µM and the IC50 was above 30.9 µM.

In the case of `CCNc1c(C(=O)N(CC)CC)c(=O)[nH]c2ncccc12`, the EC50 was above 871 µM and the IC50 is above 871 µM.

Regarding `O=C(OCCN1CCCCC1)c1cc2ccccc2[nH]1`, the EC50 is above 200 µM and the IC50 was above 200 µM.

Take `N#Cc1cc2ccccc2n(Cc2ccccc2)c1=O`: the EC50 was above 200 µM and the half-inhibitory concentration (IC50) was above 200 µM.

Consider `CSC(=NCCCCN=C(NS(=O)(=O)c1ccc(Cl)cc1)SC)NS(=O)(=O)c1ccc(Cl)cc1`, for which the EC50 is above 200 µM and the concentration for half-maximal inhibition (IC50) was above 200 µM.

Take `O=C(Nc1ccc([N+](=O)[O-])cc1)C1C(=O)C(=O)N(c2ccc([N+](=O)[O-])cc2)C1=O` (stereo not drawn): the EC50 is above 234 µM and the IC50 was above 234 µM.

Take `COc1ccc(C2(OC)Oc3ccccc3-c3nc4ccccc4nc32)cc1` (stereo not drawn): the EC50 is above 69.2 µM and the IC50 was above 69.2 µM.

As to `CCN1C(c2ccccc2)=CC(c2ccccc2)(C(Cl)(Cl)Cl)C=C1c1ccccc1`, the EC50 is above 200 µM and the IC50 worked out at 1.78 µM.

In the case of `CCOP(=O)(OCC)/C(C#N)=C/c1cccn1C(C)C`, the EC50 was 151 µM and the IC50 was above 200 µM.

For the compound `COc1ccc(N2C(Cl)C(=O)C2c2c[nH]c3ccccc23)cc1` (stereo not drawn), the EC50 is above 151 µM and the IC50 worked out at 132 µM.

Turning to `CC1(C)CC(=O)C(/C=N/C(=S)NCc2ccccc2)=C(O)C1`, the EC50 was above 200 µM and the IC50 was above 200 µM.

As to `C#CCOC(=O)c1ccccc1OC(C)=O.[C-]#[O+].[C-]#[O+].[C-]#[O+].[C-]#[O+].[C-]#[O+].[C-]#[O+].[Co].[Co]`, the EC50 was above 200 µM and the IC50 was 9.33 µM.

Regarding `N#CC1=C(N2CCCC2)NC(=O)CC1=O`, the EC50 is above 200 µM and the IC50 is above 200 µM.

Regarding `COc1c(Cl)nc2ccccc2c1N=[N+]=[N-]`, the EC50 was above 200 µM and the IC50 was 135 µM.

Consider `Oc1c2cc(Br)cc1CCc1cc(Br)cc(c1O)CC2`, for which the EC50 was above 200 µM and the IC50 was determined as 25.7 µM.

As for `CC(=O)OC1C[C@@]2(C)C(CC[C@@H]2C(C)=O)[C@@H]2CC=C3C[C@@H](O)CC[C@]3(C)C12` (stereo partly drawn), the outcome was inactive.

Take `COC(=O)c1ccc(/C=C/c2cc(O)ccc2O)cc1`: the EC50 was above 20 µM and the IC50 worked out at 3.09 µM.

Take `COc1ccc2oc(OC)c(CC=C(C)C)c(=O)c2c1C`: the EC50 is above 200 µM and the IC50 was determined as 141 µM.

As a reminder, the EC50 is the concentration needed to bring the measured effect to its halfway point. The IC50 is the concentration needed to halve the response being measured. Low values mean higher potency, high ones lower potency.

(Values after PubChem BioAssay AID179 (DTP/NCI, 2004).)
